# Results: patent US20160051594A1, “Therapeutic Compositions and Uses Thereof” (MANUKA HEALTH NEW ZEALAND LIMITED, priority 2013, published 2016)
# Tests used:
# [1] = tested on: human colorectal adenocarcinoma cells (DLD-1); experiment: MTT proliferation assay, DLD-1 cells (Examples 2 and 3); type: cell-based
# Procedure: Test samples shown below in Table 3 were assessed for their ability to modulate the viability and proliferation of human colorectal adenocarcinoma cells (DLD-1) as assessed by the MTT assay. A positive control, 5-Fluorouracil (5-FU) was included in addition to an unsupplemented cell control (negative control) in the study. All samples were normalized to 200 μg/ml total solids.
# Thus, DLD-1 colon cancer cells were exposed to: • a tincture originally containing 25% solids by mass propolis which then diluted in the test solution to give 200 μg/ml total solids. The tincture was used to manufacture the cyclodextrin-encapsulated propolis samples. • Cyclodextrin propolis (γ-cyclodextrin encapsulated with 25% propolis tincture), CD1 from Table 2 in Example 1 • Cyclodextrin propolis+CAPE (γ-cyclodextrin encapsulated 25% propolis tincture with added CAPE to double the concentration of CAPE relative to the tincture), CD2 from Table 2 in Example 1 • γ-cyclodextrin alone (CAVAMAX W8 food gamma cyclodextrin) • 5-flurorouracil at 7.50 ng/ml as a positive control
# All cyclodextrin-encapsulated samples and γ-cyclodextrin alone were assayed on a per weight of sample, and so contain at most 50 μg/ml total solids as propolis.
# Human colorectal adenocarcinoma epithelial cell lines were revived from cryostorage and cultured in the presence of the test and reference samples. The culture conditions for the cells were those described by the supplier of the cells (ATCC). An MTT assay was then performed on the cultures to determine the effect of the samples on the cell proliferation.
# • 1. The human colorectal adenocarcinoma cells (DLD-1) obtained from the American Type Culture Collection USA were revived from cryostorage. • 2. Following initial propagation using the media described above (see Medium Preparation), the culture was subcultured using the trypsin-EDTA as follows. The media was removed and 5 ml of the trypsin-EDTA solution added and incubated at 37° C. for 5 min or until all the cells had detached. The trypsin was neutralised by adding an equal volume of DMEM medium and the culture centrifuged at 300 g (1200 rpm) for 5 min at 4° C. • 3. The supernatant was decanted and the cell pellets resuspended in medium DMEM, FBS (10%), penicillin (100 units/ml), streptomycin (100 μg/ml). The cells were cultured at 37° C. in 5% CO2/95% air. • 4. After reaching confluence, the cells were detached using trypsin-EDTA and centrifuged as described in 2 above. • 5. The supernatants were discarded and the cells resuspended in DMEM and supplements as described in 3 above at 7.5×10^4 cells per ml. A total volume of 23 mls of the cell suspension was required. • 6. Into each well of three 96 well plates, 180 μl of the cells ([…]) or medium was added as indicated in the plate layout below. The plates were incubated at 5% CO2/95% air at 37° C. for 8 h which was sufficient to allow the cells to strongly adhere. • 7. To each well, 20 μl of each of the test samples or positive control was added as indicated in the diagrams above. To the wells labelled ‘medium’ or ‘cells only’, 20 μl of 15% ETOH/HBSS was added. Each sample was assessed in replicates of 6, while the controls on all three plates were assessed in replicates of 9 (combined triplicates) • 8. The total volume in each well was 200 μl. • 9. The plates were incubated at 37° C. in 5% CO2/95% air for 19 h.
# • 1. On completion of the incubation, 20 μl of MTT working solution (5 mg/ml) was added to all wells and incubated for 2 hr at 37° C. in 5% CO2/95% air. • 2. 100 μl of MTT lysis buffer was then added and the plates incubated for 3 hr at 37° C. on a shaker in 5% CO2/95% air, followed by pipetting to break up and dissolve the crystals until fully solubilized. The plates were centrifuged at 1200 rpm for 10 minutes to pelletize any remaining insoluble material. From each well 200 μl aliquots were transferred to fresh 96 well plates. The plates were read by a VersaMax microplate reader at 570 nm. • 3. […]
# [2] = tested on: human oesophageal squamous cell carcinoma cell line (KYSE-30); experiment: Gastro-intestinal cancer anti-proliferative MTT assay, KYSE-30 (Examples 5-9); type: cell-based; details: Example 9
# Procedure: Sample CD5 γ-cyclodextrin as prepared in Example 1 was assessed for its ability to modulate the viability and proliferation of human colorectal adenocarcinoma cells (DLD-1); human colon cancer cell line (HCT-116); human gastric carcinoma cell line (NCI-N87); and human oesophageal squamous cell carcinoma cell line (KYSE-30) as assessed by the MTT assay. The positive control, 5-fluorouracil (5-FU) was included at three concentrations; in addition to an unsupplemented cell control as a negative control in the study. [Do we include test compounds for comparison?.
# The four human gastrointestinal carcinoma cell lines were revived from cryostorage and cultured in the presence of the test and reference samples. An MTT assay was then performed on the cultures to determine the effect of the samples on the cell viability and proliferation.
# The test sample, and all other test samples in Examples 5-8 were dissolved in 15% ethanol/Hanks Balanced Salt Solution (ETOH)/HBSS to a concentration of 2 mg/mL solids. In the assay the final concentration of the samples was 200 μg/ml with a final EtOH concentration of 1.5%.
# • 1. Human colorectal adenocarcinoma cells (ATCC CCI-221, DLD-1)(ATCC, Bethesda, Md., USA) • 2. Human gastric carcinoma cells (ATCC CRL-5822, NCI-N87)(ATCC, Bethesda, Md., USA) • 3. Human oesophageal squamous cell carcinoma (ECACC, KYSE-30)(Sigma Aldrich, Auckland, NZ) • 4. Human colon carcinoma cells (ECACC HCT-116)(Sigma Aldrich, Auckland, NZ) • 5. Penicillin-streptomycin solution: 10000 units/ml penicillin, 10 mg/ml streptomycin in 0.9% NaCl (Sigma Cat #P-0781). Stored at −20° C. • 6. For DLD-1 cells: DMEM culture medium (Invitrogen Cat #12100-046). Stored at 4° C. • 7. For NCI-N87 cells: RPMI-1640 medium modified to contain 2 mM L-glutamine, 10 mM HEPES, 1 mM sodium pyruvate, 4500 mg/L glucose, and 1500 mg/L sodium bicarbonate (Sigma R6504). Stored at 4° C. • 8. For KYSE-410 cells: RPMI-1640 medium modified to contain 2 mM L-glutamine (Sigma R6504). Stored at 4° C. • 9. For HCT-116 cells: McCoy's 5A medium modified to contain 2 mM L-glutamine (Sigma M48792). Stored at 4° C. • 10. […]
# [3] = tested on: human colorectal cancer cell line HCT-116; experiment: Apoptotic assay (PE Annexin V, flow cytometry), HCT-116; type: cell-based; details: for % Apoptosis: 50 hours
# Procedure: (§1) The human colorectal cell line HCT-116 was obtained from the American Type Culture Collection (Rockville, Md.). The butyrate resistant cell line was derived from HCT-116 by culturing the parental cells in increasing concentrations of butyrate as previously described in Bordonaro […]. The activation of beta-catenin by Wnt signaling mediates the effects of histone deacetylase inhibitors. Exp Cell Res. 2007; 313:1652-66 (including references therein). Colorectal cells were grown in alpha-MEM medium with 10% fetal bovine serum and antibiotics. The concentration of CAPE in the propolis-cyclodextrin complex CD1 was 1.79 μg/100 μg propolis solid encapsulated in the cyclodextrin, or 0.41 μg/100 μg cyclodextrin complex. Stock solutions were prepared in dimethyl sulfoxide, except for butyrate, which was dissolved in water at 1 M concentration. […] All cells (floating and attached) were harvested and stained for apoptotic and necrotic markers using a PE Annexin V Apoptosis Detection Kit I (BD Biosciences, #559763). Flow cytometry analyses were carried out with FACS Aria II and DiVa software. […] All data are presented as mean±standard deviation from at least three sets of independent experiments. Student T-test analysis was used to determine the significance of statistical differences. Differences were considered significant at P<0.05.
# [4] = tested on: HCT-116-R cells (butyrate resistant, derived from HCT-116); experiment: Apoptotic assay (PE Annexin V, flow cytometry), butyrate-resistant HCT-116-R; type: cell-based, human; details: for % Apoptosis: HCT-116-R, 50 hours
# Procedure: as §1
smiles,measurement,setting,value
"OC[C@H]1O[C@@H]2O[C@H]3[C@H](O)[C@@H](O)[C@@H](O[C@H]4[C@H](O)[C@@H](O)[C@@H](O[C@H]5[C@H](O)[C@@H](O)[C@@H](O[C@H]6[C@H](O)[C@@H](O)[C@@H](O[C@H]7[C@H](O)[C@@H](O)[C@@H](O[C@H]8[C@H](O)[C@@H](O)[C@@H](O[C@H]9[C@H](O)[C@@H](O)[C@@H](O[C@H]1[C@H](O)[C@H]2O)O[C@@H]9CO)O[C@@H]8CO)O[C@@H]7CO)O[C@@H]6CO)O[C@@H]5CO)O[C@@H]4CO)O[C@@H]3CO [CAVAMAX W8 Food gamma Cyclodextrin, gamma-cyclodextrin]",% inhibition,"[1]; DLD-1, 200 μg/ml",9.11%
same,Mean (OD 570 nm),"[1]; DLD-1, 200 μg/ml",0.6405
same,inhibition at 200 µg/mL,"[1]; Homo sapiens, DLD-1, DLD-1, 200 μg/ml",9.1%
same,inhibition at 200 µg/mL,"[2]; Homo sapiens, KYSE-30, KYSE-30, 200 μg/ml",8.8%
same,Mean (OD 570 nm),"[2]; KYSE-30, 200 μg/ml",0.3056
same,% inhibition,"[2]; KYSE-30, 200 μg/ml, listed as Gamma-CD",8.85%
"O=C(/C=C/c1ccc(O)c(O)c1)OCCc1ccccc1 [CAPE, caffeic acid phenethyl ester]",Mean (OD 570 nm),"[1]; DLD-1, 200 μg/ml",0.0777
same,% Apoptosis,"[3]; HCT-116, 1.2 ug/ml",18.3%
same,apoptosis relative to the negative control,"[3]; HCT-116, CAPE 1.2 ug/ml",no significant increase in apoptosis
same,% Apoptosis,[4]; 1.2 ug/ml,9.7%
same,apoptosis relative to the negative control,"[4]; HCT-R, CAPE 1.2 ug/ml alone",did not undergo significant apoptosis
O=c1c(O)c(-c2ccccc2)oc2cc(O)cc(O)c12 [Galangin],Mean (OD 570 nm),"[1]; DLD-1, 200 μg/ml",0.1411
O=c1cc(-c2ccccc2)oc2cc(O)cc(O)c12 [Chrysin],Mean (OD 570 nm),"[1]; DLD-1, 200 μg/ml",0.1233
CCCC(=O)O [butyrate],% Apoptosis,"[3]; HCT-116, 5 mM",57.5%
same,apoptosis relative to cells only,"[3]; HCT-116, butyrate 5 mM",35%
same,% Apoptosis,[4]; 5 mM,11.2%
